From PMC9784969, “SARS-CoV-2 Inhibitors Identified by Phenotypic Analysis of a Collection of Viral RNA-Binding Molecules” (Pharmaceuticals, 2022)
pEC50: −log10 of the molar value. Like-named read-outs stand apart in the source and are kept apart here.

Experiments:
PRF RNA = experiment: ligand-based 1H NMR (1D, CPMG, wLOGSY); type: binding, SARS-CoV-2
5_SL2+3 RNA = experiment: ligand-based 1H NMR (1D, CPMG, wLOGSY); type: binding, SARS-CoV-2
in vitro [1] = settings: African green monkey, uninfected Vero E6 cells
3_S2m RNA = experiment: RNA-based 1H NMR (TOCSY) titration; type: binding, SARS-CoV-2; settings: RNA:ligand up to 1:4
Method: The RNA samples were previously diafiltrated into an aqueous solution containing 25 mM potassium phosphate (pH 6.2), 50 mM KCl and 0.1 mM EDTA, and the titration experiments were carried out at 27 °C using 50 μM RNA samples in 100% D2O. The 3_S2m titrations were duplicated at 25 °C using 120 μM RNA samples and additionally acquiring NOESY spectra (250 ms mixing time) at 1:0 and 1:4 ratios. For this system, the chemical shift perturbation analyses included 63 H1’, H2’, and aromatic 3_S2m resonances. The isolated 3_S2m hairpin was studied at two different temperatures (25 and 35 °C) using 120 and 500 μM RNA samples and similar TOCSY and NOESY (120 and 250 ms mixing times) experiments. […] The relaxation delay for NOESY and TOCSY acquisition was 2 and 1.5 s, respectively.

in vitro [2] = settings: human, uninfected 293T-ACE2 cells
SARS-CoV-2 USA-WA1/2020 [3] = experiment: microbe, parasite or virus in culture; type: cell-based; settings: Severe acute respiratory syndrome coronavirus 2, 48 h; 293T-ACE2 cells, MOI 0.25, two days; read-out: SARS-CoV-2 EC50
ATTL RNA = experiment: ligand-based 1H NMR (1D, CPMG, wLOGSY); type: binding, SARS-CoV-2
ORF7b RNA = experiment: ligand-based 1H NMR (1D, CPMG, wLOGSY); type: binding, SARS-CoV-2
SARS-CoV-2 USA-WA1/2020 [4] = experiment: microbe, parasite or virus in culture; type: cell-based; settings: Severe acute respiratory syndrome coronavirus 2, Vero C1008, 48 h, Vero E6 cells, MOI 0.025, two days; read-out: SARS-CoV-2 EC50
[5] = average of aliphatic protons, RNA:ligand 1:100 (clomiphene) or 1:50 (trim, qz2)
[6] = average of aromatic protons, RNA:ligand 1:100 (clomiphene) or 1:50 (trim, qz2)

## NCCCc1cn(C(c2ccccc2)(c2ccccc2)c2ccccc2)cn1 [trim]
PRF RNA; [5]
  CPMG variation: 14.0%
  LB: 13.9%
  LOGSY factor: 29.0%
PRF RNA; [6]
  CPMG variation: 15.5%
  LB: -22.5%
  LOGSY factor: 50.5%
PRF RNA; trim peak A, RNA:ligand 1:50
  CPMG variation: 13.0%
  LB: 20.1%
  LOGSY factor: 37.0%
PRF RNA; trim peak B, RNA:ligand 1:50
  CPMG variation: 18.9%
  LB: 10.8%
  LOGSY factor: 21.0%
PRF RNA; trim peak C, RNA:ligand 1:50
  CPMG variation: 9.72%
  LB: -39.2%
  LOGSY factor: 16.7%
PRF RNA; trim peak D, RNA:ligand 1:50
  CPMG variation: 19.7%
  LB: 3.93%
  LOGSY factor: 46.0%
PRF RNA; trim peak E, RNA:ligand 1:50
  CPMG variation: 12.5%
  LB: -58.9%
  LOGSY factor: 88.8%
5_SL2+3 RNA; [5]
  CPMG variation: 31.0%
  LB: 19.1%
  LOGSY factor: 49.4%
5_SL2+3 RNA; [6]
  CPMG variation: 39.0%
  LB: 15.9%
  LOGSY factor: 131.1%
5_SL2+3 RNA; trim peak A, RNA:ligand 1:50
  CPMG variation: 32.9%
  LB: 15.7%
  LOGSY factor: 55.3%
5_SL2+3 RNA; trim peak B, RNA:ligand 1:50
  CPMG variation: 36.9%
  LB: 20.8%
  LOGSY factor: 43.4%
5_SL2+3 RNA; trim peak C, RNA:ligand 1:50
  CPMG variation: 40.3%
  LB: 14.9%
  LOGSY factor: 131%
5_SL2+3 RNA; trim peak D, RNA:ligand 1:50
  CPMG variation: 38.6%
  LB: 16.0%
  LOGSY factor: 126%
5_SL2+3 RNA; trim peak E, RNA:ligand 1:50
  CPMG variation: 38.9%
  LB: 16.7%
  LOGSY factor: 135%
In vitro [1]
  CC50 at 2 days: > 90 µM
3_S2m RNA
  RNA chemical shift perturbations: strongest RNA chemical shift perturbations
In vitro [2]
  CC50 at 2 days: 23.5 µM
SARS-CoV-2 USA-WA1/2020 [3]
  pEC50: 6.48
ATTL RNA; [5]
  CPMG variation: 11.7%
  LB: 10.0%
  LOGSY factor: 5.15%
ATTL RNA; [6]
  CPMG variation: -12.7%
  LB: 9.31%
  LOGSY factor: 4.35%
ATTL RNA; trim peak A, RNA:ligand 1:50
  CPMG variation: 8.20%
  LB: 12.4%
  LOGSY factor: 7.80%
ATTL RNA; trim peak B, RNA:ligand 1:50
  CPMG variation: 17.6%
  LB: 8.81%
  LOGSY factor: 2.50%
ATTL RNA; trim peak C, RNA:ligand 1:50
  CPMG variation: -36.9%
  LB: 1.54%
  LOGSY factor: 4.56%
ATTL RNA; trim peak D, RNA:ligand 1:50
  CPMG variation: 8.68%
  LB: 7.54%
  LOGSY factor: 4.51%
ATTL RNA; trim peak E, RNA:ligand 1:50
  CPMG variation: -32.0%
  LB: 23.3%
  LOGSY factor: 3.98%
ORF7b RNA; [5]
  CPMG variation: 38.7%
  LB: 13.5%
  LOGSY factor: 103%
ORF7b RNA; [6]
  CPMG variation: 30.2%
  LB: 4.23%
  LOGSY factor: 208%
ORF7b RNA; trim peak A, RNA:ligand 1:50
  CPMG variation: 34.9%
  LB: 15.8%
  LOGSY factor: 75.4%
ORF7b RNA; trim peak B, RNA:ligand 1:50
  CPMG variation: 44.0%
  LB: 12.4%
  LOGSY factor: 132%
ORF7b RNA; trim peak C, RNA:ligand 1:50
  CPMG variation: 18.3%
  LB: -3.43%
  LOGSY factor: 210%
ORF7b RNA; trim peak D, RNA:ligand 1:50
  CPMG variation: 41.8%
  LB: 7.94%
  LOGSY factor: 218%
ORF7b RNA; trim peak E, RNA:ligand 1:50
  CPMG variation: 20.4%
  LB: 4.46%
  LOGSY factor: 196%
SARS-CoV-2 USA-WA1/2020 [4]
  pEC50: 5.46
